Legend:
[1] = system: blood-glucose concentration; assay: ED30 oral hypoglycemic dose in mice (Table 2); assay type: in vivo; details: Mus musculus, oral, read-out: Effective oral doses ED30
Experimental: (§1) The hypoglycemic activity of N-{4-[2-(pyrazole-1-carbonamide)-ethyl]-benzenesulphonyl}-ureas prepared according to the present invention can be noticed after their oral administration to mice, rats, rabbits and people and when determining the glucose concentration in blood with a known enzymatic method using glucose oxidase.
(§2) (Table 2). […] It has been observed that even 9 hours after the administration of one dose of SPC-5002 to rats, the glucose level in blood was decreased, whereas in the case of Glibornuride the glucose level comes back to its normal value in 6 hours from the time of the administration.

[2] = system: blood-glucose concentration; assay: Blood-glucose time course up to 24 hours in rabbits (Table 4); assay type: in vivo; details: for glucose concentration in blood, average: oral 5 mg/kg
Experimental: as §1, with “oxidase. […]” for “oxidase.”
The comparison of SPC-5002 and Glibornuride effect on changes in
concentration of rabbits in time up to 24 hours from the moment of the
in an oral dose containing 5 mg/kg body weight

[3] = system: blood-glucose concentration; assay: Decrease in blood-glucose concentration in rats after oral dose (Table 1; ED30 rats Table 2); assay type: in vivo; details: Rattus norvegicus, oral, read-out: Effective oral doses ED30
Description: as §1
The exemplary comparison of effective doses (ED30) and the effect of oral dose size of the compounds prepared according to the present invention with Glibornuride, which is distinguished by its high effectiveness and good tolerance when administered to people, on the glucose concentration in the blood of rats, is given in Table 1.

[4] = Acute, subacute and protracted toxicity (6 months); assay type: in vivo
[5] = Oral toxicity in rats (LD50); details: rat, in vivo
[6] = system: oxygen consumption in mitochondria of a rat's liver; assay: Oxygen consumption of rat liver mitochondria; assay type: biochemical
Experimental: 2-oxoglutaran 2 mM, ADP 1 mM, mitochondria | protein 4 mg/m. […] The

glucose concentration = assay: Blood glucose in normal men after a meal (Table 8); assay type: in vivo; details: for blood-glycose level decrease: normal men after meal; for Glucose concentration / % of changes in glucose concentration: meal, oral 10 mg
Experimental: as §1
(§3) When administered to normal men volunteers it has been stated that 60 minutes after the administration of SPC-5002 a 5 mg oral dose causes the decrease in blood-glucose of 28% in comparision to the starting value and after 90 minutes it reaches 33% (Table 7). Whereas Glibornuride employed in a dose 2.5 times as big on peak of its activity decreases the glucose blood level only of 19%. It can clearly be noticed that there is a positive correlation between the glycemic and insulin level curves. Both examined preparations cause a significant decrease in free fatty acids in blood. […] 60 and 90 minutes after the SPC-5002 administration, the blood-glycose level is decreased to 33 and 52% while in the Placebo group it is maintained in the range of 13-14%.
(§4) The comparison of glucose concentration changes in voluntary-normal men
(§5) eaten a meal and the oral administration of 10 mg of SPC-5002 or Placebo

[7] = system: oxidizing phosphorylation in mitochondria of a rat's liver; assay: Oxidizing phosphorylation of rat liver mitochondria; assay type: biochemical
Experimental: 2-oxoglutaran 2 mM, ADP 1 mM, mitochondria | protein 4 mg/m. […] The | oxidizing phosphorylation speed was determined by means of the measuremen | of hydrogen ion consumption. The calcium transmission to mitochondria was […]

insulin concentration [8] = assay: Insulin in normal men volunteers (Table 7); assay type: in vivo; details: oral 5 mg SPC-5002 or 12.5 mg Glibornuride
Experimental: as §3
The comparison of glucose, insulin and free fatty acids concentration in
normal men after the oral administration of 5 mg of SPC-5002 or 12.5 mg

[9] = system: blood-glucose concentration; assay: Hypoglycemic activity in three animal species versus Glibornuride; assay type: in vivo, mice, rats, rabbits; details: parenteral and oral
Experimental: as §1, §2

[10] = system: blood-glucose concentration; assay: ED30 oral hypoglycemic dose in rabbits (Table 2); assay type: in vivo; details: Oryctolagus cuniculus, read-out: Effective oral doses ED30
Experimental: as §1, §2

insulin concentration [11] = assay: Insulin in normal men after a meal (Table 8); assay type: in vivo; details: for Insulin concentration: normal men, meal, oral 10 mg
Experimental: as §3, §4, §5

[12] = system: calcium transmission in mitochondria of a rat's liver; assay: Calcium transmission to rat liver mitochondria; assay type: biochemical; details: for % of inhibition, calcium transmission: medium with CaCl 300 nmoles/ml
Experimental: Sucrose 170mM, KCl 10 mM, MgCl2 […], K2 HPO 5 mM, EGTA 0.01 mM
2-oxoglutaran 2 mM, ADP 1 mM, mitochondria
protein 4 mg/m. Temperature 25° C.
of hydrogen ion consumption. The calcium transmission to mitochondria was
studied with two methods; in a continuous way with a Radiometer calcium
electrode type F2112 or with an isotopic method.
*The medium contained Ca Cl 300 nmoles/ml.

## Cc1ccn(C(=O)NCCc2ccc(S(=O)(=O)NC(=O)NC3CCCCC3)cc2)n1 [SPC-5002, N-{4-[2-(3-methylpyrazole-1-carbonamide)-ethyl]-benzenesulphonyl}-N'-cyclohexylourea]
[1]
  ED30: 1.9 mg/kg
[2]
  effectiveness and duration relative to Glibornuride: more effective and longer activity in comparison to Glibornuride
[2]; 0 h
  glucose concentration in blood, average: 71 mg/100 cc
[2]; 0.5 h
  glucose concentration in blood, average: 57 mg/100 cc
[2]; 1 h
  glucose concentration in blood, average: 59 mg/100 cc
[2]; 3 h
  glucose concentration in blood, average: 63 mg/100 cc
[2]; 6 h
  glucose concentration in blood, average: 62 mg/100 cc
[2]; 9 h
  glucose concentration in blood, average: 62 mg/100 cc
[2]; 24 h
  glucose concentration in blood, average: 70 mg/100 cc
[3]
  ED30: 2.2 mg/kg
[4]; 6 months administration
  changes in haematopoietic system: No changes in the haematopoietic system
  effect on liver and kidneys: did not handicap the activities of the liver and kidneys
  general number of white blood corpuscles: did not influence the general number of white blood corpuscles
[4]; acute, subacute and protracted toxicity
  toxicity: extremely low toxicity
[4]; compared with control group
  body weight, consumption of food and water: did not reveal any differences between the control group and the group under examination
[5]
  LD50: > 15000 mg/kg
[6]; 0.05 nM
  effect on oxidation: no effect
[6]; concentration 0.05 n M
  % of inhibition, oxygen consumption: 0%
[6]; concentration 0.1 n M
  % of inhibition, oxygen consumption: 12%
[6]; concentration 0.3 n M
  % of inhibition, oxygen consumption: 21%
[6]; concentration 0.5 n M
  % of inhibition, oxygen consumption: 34%
[6]; concentration 0.7 n M
  % of inhibition, oxygen consumption: 47%
[6]; concentration 1.0 n M
  % of inhibition, oxygen consumption: 69%
[6]; rat liver mitochondria
  Ki: 750 µM
Glucose concentration; 60 minutes
  blood-glycose level decrease: 33%
Glucose concentration; 90 minutes
  blood-glycose level decrease: 52%
Glucose concentration; normal men, 30 minutes after the meal
  glucose increase vs starting value: 34%
Glucose concentration; normal men, 0 mins (empty stomach)
  Glucose concentration: 89 mg/100 cc
Glucose concentration; normal men, 30 mins
  % of changes in glucose concentration: +34%
  Glucose concentration: 119 mg/100 cc
Glucose concentration; normal men, 60 mins
  % of changes in glucose concentration: -33%
  Glucose concentration: 60 mg/100 cc
Glucose concentration; normal men, 90 mins
  % of changes in glucose concentration: -52%
  Glucose concentration: 43 mg/100 cc
Glucose concentration; normal men, 120 mins
  % of changes in glucose concentration: -21%
  Glucose concentration: 70 mg/100 cc
Glucose concentration; normal men, 180 mins
  % of changes in glucose concentration: 0%
  Glucose concentration: 89 mg/100 cc
[7]; 0.05 nM
  effect on oxidizing phosphorylation: no effect
[7]; concentration 0.05 n M
  % of inhibition, oxidizing phosphorylation: 0%
[7]; concentration 0.1 n M
  % of inhibition, oxidizing phosphorylation: 15%
[7]; concentration 0.3 n M
  % of inhibition, oxidizing phosphorylation: 21%
[7]; concentration 0.5 n M
  % of inhibition, oxidizing phosphorylation: 38%
[7]; concentration 0.7 n M
  % of inhibition, oxidizing phosphorylation: 63%
[7]; concentration 1.0 n M
  % of inhibition, oxidizing phosphorylation: 74%
[7]; rat liver mitochondria
  Ki: 600 µM
Insulin concentration [8]; 0 mins (empty stomach)
  Insulin concentration: 4.0 μU/cc
Insulin concentration [8]; 30 mins
  Insulin concentration: 9.2 μU/cc
Insulin concentration [8]; 60 mins
  Insulin concentration: 13.5 μU/cc
Insulin concentration [8]; 90 mins
  Insulin concentration: 7.3 μU/cc
Insulin concentration [8]; 120 mins
  Insulin concentration: 5.0 μU/cc
Insulin concentration [8]; 180 mins
  Insulin concentration: 3.2 μU/cc
[9]
  hypoglycemic activity relative to Glibornuride: about twice as active as Glibornuride
[10]
  ED30: 5.5 mg/kg
Insulin concentration [11]; normal men after meal, 60 minutes
  insulin concentration relative to placebo group: twice as high as that in the placebo group
Insulin concentration [11]; 0 mins (empty stomach)
  Insulin concentration: 7 μU/cc
Insulin concentration [11]; 30 mins
  Insulin concentration: 50 μU/cc
Insulin concentration [11]; 60 mins
  Insulin concentration: 55 μU/cc
Insulin concentration [11]; 90 mins
  Insulin concentration: 17 μU/cc
Insulin concentration [11]; 120 mins
  Insulin concentration: 8 μU/cc
Insulin concentration [11]; 180 mins
  Insulin concentration: 8 μU/cc
[12]; concentration 0.05 n M
  % of inhibition, calcium transmission: 8%
[12]; concentration 0.1 n M
  Calcium transmission / Oxide consumption (ratio of inhibition): 1.75
  % of inhibition, calcium transmission: 21%
[12]; concentration 0.3 n M
  Calcium transmission / Oxide consumption (ratio of inhibition): 1.42
  % of inhibition, calcium transmission: 30%
[12]; concentration 0.5 n M
  Calcium transmission / Oxide consumption (ratio of inhibition): 1.55
  % of inhibition, calcium transmission: 53%
[12]; concentration 1.0 n M
  Calcium transmission / Oxide consumption (ratio of inhibition): 0.99
  % of inhibition, calcium transmission: 68%
[12]; rat liver mitochondria
  Ki: 450 µM
  preference of inhibition: calcium transmission versus oxidizing processes: preferential inhibiting of calcium transmission
[12]; ratio of inhibitor constants
  Ki ratio SPC-5002 / Glibenclamide, calcium transmission: 10

Reference: patent US4153710A, “N-(4-[2-(pyrazole-1-carbonamide)-ethyl]-benzenesulphonyl)-urea” (Starogardzkie Zaklady Farmaceutyczne POLFA, priority 1976, dated 1979)
